Source: ChEMBL document CHEMBL3885881, “DrugMatrix”

Species: Rattus norvegicus
Test: DrugMatrix - Regimen: Daily Repeat
Assay type: toxicity, organism-based, Sprague-Dawley
Set-up: regimen Daily Repeat, gender Male, age 6-8 weeks
Settings: in vivo, po, route oral GAVAGE, vehicle 100 % WATER; for ABSOLUTE BASOPHIL / ABSOLUTE EOSINOPHIL / ABSOLUTE LYMPHOCYTE / ABSOLUTE MONOCYTE / ABSOLUTE SEGMENTED NEUTROPHIL / BASOPHIL / EOSINOPHIL / ERYTHROCYTE COUNT / HEMATOCRIT / HEMOGLOBIN / LEUKOCYTE COUNT / LYMPHOCYTE / MEAN CORPUSCULAR HEMOGLOBIN / MEAN CORPUSCULAR HEMOGLOBIN CONCENTRATION / MEAN CORPUSCULAR VOLUME / MONOCYTE / NEUTROPHIL / NUCLEATED RED BLOOD CELLS / PLATELET COUNT: tissue Blood; for ALANINE AMINOTRANSFERASE / ALBUMIN / ALKALINE PHOSPHATASE / ASPARTATE AMINOTRANSFERASE / BLOOD UREA NITROGEN / CARBON DIOXIDE / CHLORIDE / CHOLESTEROL / CREATINE PHOSPHOKINASE / CREATININE / GLUCOSE / LACTATE DEHYDROGENASE / LIPASE / PHOSPHORUS / POTASSIUM / SODIUM / TOTAL BILIRUBIN / TOTAL PROTEIN / URIC ACID: tissue Plasma
[1] = 0 mg/kg, 72 h, dose level Control, time 3 day
[2] = 0 mg/kg, 120 h, dose level Control, time 5 day
[3] = 300 mg/kg, 72 h, dose level Low, time 3 day

In the case of `CC(Cl)(Cl)Cl` [TRICHLOROETHANE], the “ABSOLUTE BASOPHIL” value [1] is reported as 0 CELLS/uL, the “ABSOLUTE EOSINOPHIL” value [1] is reported as 86.33 CELLS/uL and the “ABSOLUTE LYMPHOCYTE” value [1] is reported as 12090.17 CELLS/uL. For the same compound, the “ABSOLUTE MONOCYTE” value [1] was 166.67 CELLS/uL, the “ABSOLUTE SEGMENTED NEUTROPHIL” value [1] was 1090.17 CELLS/uL and the BASOPHIL [1] was 0%. For the same compound, the EOSINOPHIL [1] was 0.67%, the “ERYTHROCYTE COUNT” value [1] was 5.57 x10E6/uL and the HEMATOCRIT [1] was 35.33%. The HEMOGLOBIN [1] was 13.83 G/DL, the “LEUKOCYTE COUNT” value [1] was 13.43 x10E3/uL and the LYMPHOCYTE [1] was 89.83%. For the same compound, the “MEAN CORPUSCULAR HEMOGLOBIN” value [1] was 24.88 pg, the “MEAN CORPUSCULAR HEMOGLOBIN CONCENTRATION” value [1] was 39.15 G/DL and the “MEAN CORPUSCULAR VOLUME” value [1] was 63.52 fL. For the same compound, the MONOCYTE [1] was 1.17%, the NEUTROPHIL [1] was 8.33% and the “NUCLEATED RED BLOOD CELLS” value [1] was 0 /100WBC. For the same compound, the “PLATELET COUNT” value [1] was 1181.33 x10E3/uL, the “ALANINE AMINOTRANSFERASE” value [1] was 48.33 u/L and the ALBUMIN [1] was 4.1 G/DL. For the same compound, the “ALKALINE PHOSPHATASE” value [1] was 395 u/L, the “ASPARTATE AMINOTRANSFERASE” value [1] was 81.83 u/L and the “BLOOD UREA NITROGEN” value [1] was 15.83 mg/dL. For the same compound, the “CARBON DIOXIDE” value [1] was 24.17 mmol/L, the CHLORIDE [1] was 103.83 MEQ/L and the CHOLESTEROL [1] was 63.67 mg/dL. The “CREATINE PHOSPHOKINASE” value [1] was 372.83 u/L, the CREATININE [1] was 0.18 mg/dL and the GLUCOSE [1] was 173.83 mg/dL. For the same compound, the “LACTATE DEHYDROGENASE” value [1] was 188.33 u/L, the LIPASE [1] was 9.5 u/L and the PHOSPHORUS [1] was 11.95 mg/dL. The POTASSIUM [1] was 5.99 MEQ/L, the SODIUM [1] was 144.43 MEQ/L and the “TOTAL BILIRUBIN” value [1] was 0.15 mg/dL. For the same compound, the “TOTAL PROTEIN” value [1] was 5.95 G/DL, the “URIC ACID” value [1] was 1.82 mg/dL and the “ABSOLUTE BASOPHIL” value [2] was 0 CELLS/uL. The “ABSOLUTE EOSINOPHIL” value [2] was 26.67 CELLS/uL, the “ABSOLUTE LYMPHOCYTE” value [2] was 7583.83 CELLS/uL and the “ABSOLUTE MONOCYTE” value [2] was 131.33 CELLS/uL. For the same compound, the “ABSOLUTE SEGMENTED NEUTROPHIL” value [2] was 674.83 CELLS/uL, the BASOPHIL [2] was 0% and the EOSINOPHIL [2] was 0.33%. The “ERYTHROCYTE COUNT” value [2] was 5.78 x10E6/uL, the HEMATOCRIT [2] was 36.48% and the HEMOGLOBIN [2] was 14.03 G/DL. The “LEUKOCYTE COUNT” value [2] was 8.42 x10E3/uL, the LYMPHOCYTE [2] was 89.83% and the “MEAN CORPUSCULAR HEMOGLOBIN” value [2] was 24.3 pg. The “MEAN CORPUSCULAR HEMOGLOBIN CONCENTRATION” value [2] was 38.52 G/DL, the “MEAN CORPUSCULAR VOLUME” value [2] was 63.15 fL and the MONOCYTE [2] was 1.67%. For the same compound, the NEUTROPHIL [2] was 8.17%, the “NUCLEATED RED BLOOD CELLS” value [2] was 0 /100WBC and the “PLATELET COUNT” value [2] was 1186.67 x10E3/uL. The “ALANINE AMINOTRANSFERASE” value [2] was 50.17 u/L, the ALBUMIN [2] was 4.07 G/DL and the “ALKALINE PHOSPHATASE” value [2] was 367.5 u/L. For the same compound, the “ASPARTATE AMINOTRANSFERASE” value [2] was 81.67 u/L, the “BLOOD UREA NITROGEN” value [2] was 16.17 mg/dL and the “CARBON DIOXIDE” value [2] was 32.33 mmol/L. The CHLORIDE [2] was 101.5 MEQ/L, the CHOLESTEROL [2] was 65.33 mg/dL and the “CREATINE PHOSPHOKINASE” value [2] was 255.33 u/L. The CREATININE [2] was 0.17 mg/dL, the GLUCOSE [2] was 139.33 mg/dL and the “LACTATE DEHYDROGENASE” value [2] was 95 u/L. The LIPASE [2] was 10.5 u/L, the PHOSPHORUS [2] was 10.38 mg/dL and the POTASSIUM [2] was 6.11 MEQ/L. The SODIUM [2] was 145.55 MEQ/L, the “TOTAL BILIRUBIN” value [2] was 0.17 mg/dL and the “TOTAL PROTEIN” value [2] was 5.98 G/DL. For the same compound, the “URIC ACID” value [2] was 0.93 mg/dL, the “ABSOLUTE BASOPHIL” value [3] was 0 CELLS/uL and the “ABSOLUTE EOSINOPHIL” value [3] was 37 CELLS/uL. For the same compound, the “ABSOLUTE LYMPHOCYTE” value [3] was 13276 CELLS/uL, the “ABSOLUTE MONOCYTE” value [3] was 236.33 CELLS/uL and the “ABSOLUTE SEGMENTED NEUTROPHIL” value [3] was 1084 CELLS/uL. The BASOPHIL [3] was 0%, the EOSINOPHIL [3] was 0.33% and the “ERYTHROCYTE COUNT” value [3] was 5.75 x10E6/uL. For the same compound, the HEMATOCRIT [3] was 37.23%, the HEMOGLOBIN [3] was 14.1 G/DL and the “LEUKOCYTE COUNT” value [3] was 14.63 x10E3/uL. For the same compound, the LYMPHOCYTE [3] was 90.67%, the “MEAN CORPUSCULAR HEMOGLOBIN” value [3] was 24.53 pg and the “MEAN CORPUSCULAR HEMOGLOBIN CONCENTRATION” value [3] was 37.87 G/DL. For the same compound, the “MEAN CORPUSCULAR VOLUME” value [3] was 64.8 fL, the MONOCYTE [3] was 1.67% and the NEUTROPHIL [3] was 7.33%. For the same compound, the “NUCLEATED RED BLOOD CELLS” value [3] was 0 /100WBC, the “PLATELET COUNT” value [3] was 1274 x10E3/uL and the “ALANINE AMINOTRANSFERASE” value [3] was 52 u/L. The ALBUMIN [3] was 4 G/DL, the “ALKALINE PHOSPHATASE” value [3] was 352.67 u/L and the “ASPARTATE AMINOTRANSFERASE” value [3] was 88.67 u/L. For the same compound, the “BLOOD UREA NITROGEN” value [3] was 16 mg/dL, the “CARBON DIOXIDE” value [3] was 24.67 mmol/L and the CHLORIDE [3] was 102.33 MEQ/L. The CHOLESTEROL [3] was 72 mg/dL, the “CREATINE PHOSPHOKINASE” value [3] was 1076 u/L and the CREATININE [3] was 0.13 mg/dL. The GLUCOSE [3] was 161 mg/dL, the “LACTATE DEHYDROGENASE” value [3] was 188.67 u/L and the LIPASE [3] was 9 u/L. For the same compound, the PHOSPHORUS [3] was 13.77 mg/dL, the POTASSIUM [3] was 6.88 MEQ/L and the SODIUM [3] was 144.3 MEQ/L. For the same compound, the “TOTAL BILIRUBIN” value [3] was 0.2 mg/dL, the “TOTAL PROTEIN” value [3] was 5.83 G/DL and the “URIC ACID” value [3] was 1.93 mg/dL.
